Assay results from patent publication US20030104473A1, “Common ligand mimics: benzimidazoles” (priority 2001, published 2003).
Like-named read-outs stand apart in the source and are kept apart here.

Experiments:
[1] = biological target: T1, alcohol dehydrogenase (ADH) (Saccharomyces cerevisiae, UniProt P00330); test: ADH kinetic assay, spectrophotometric reduction of NAD+ at 340 nm; type: biochemical, Bakers Yeast
T1 construct: 10 μl of ADH from Bakers Yeast; host or cells: baker's yeast
T1 sequence (P00330 1-348): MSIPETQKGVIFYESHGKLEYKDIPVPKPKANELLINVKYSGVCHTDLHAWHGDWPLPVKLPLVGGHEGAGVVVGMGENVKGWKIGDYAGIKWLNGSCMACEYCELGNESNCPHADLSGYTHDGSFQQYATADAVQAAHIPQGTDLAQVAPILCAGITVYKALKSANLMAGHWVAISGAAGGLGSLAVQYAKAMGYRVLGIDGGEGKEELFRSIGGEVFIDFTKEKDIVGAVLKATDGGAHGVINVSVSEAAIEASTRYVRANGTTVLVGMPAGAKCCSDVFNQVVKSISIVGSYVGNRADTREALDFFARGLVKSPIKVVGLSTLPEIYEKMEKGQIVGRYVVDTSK
Experimental: For ADH analysis, the compounds were screened using a kinetic protocol that spectrophotometrically evaluates reduction of NAD+.
(§1) Stock solutions of each of the reagents were prepared in the following concentrations. Dilutions of the stock solutions were prepared prior to running the assay in the concentrations indicated below.
The ADH reaction was monitored at 340 nm prior to and after addition of the inhibitor to detect background reaction with the inhibitor. Solutions of 100 μl of the inhibitors in DMSO were prepared to provide a final DMSO concentration of 5% of the total assay volume. These solutions were incubated for 6 minutes at 25° C. in a 990 μl of a solution containing 0.1 M HEPES, pH 8.0, 80 μM NAD+, and 130 mM of ethanol. The reaction was then initiated with 10 μl of ADH from Bakers Yeast ([…]; 1:400 dilution of 1.0 mg/ml). After the enzyme was added, the solution was mixed for 20 seconds, and the reaction was run for 10 minutes. After a 50 second lag, the samples were read in a Cary spectrophotometer at 340 nm. Reading of the samples was continued until 300 seconds. Cuvette #1 contained the control reaction (no inhibitor), and cuvette #2 contained the positive control reaction in which Cibacron Blue at 15.5 μM was substituted for inhibitor to yield 50 to 60% inhibition. The substrate was kept at a level at least 10 times the Km. The final concentration of […] was about 2.5 mM.
Where only a simple read was desired, as in the case of NAD+ concentration determination, 13 μl (10 M stock) of ethanol was used to drive the reaction, and 10 μl of pure enzyme (1 mg/ml) was used. NAD+was soluble at 2 mM, which allowed the concentration determination step to be skipped. In this situation, the procedure was as follows. All of the ingredients except for the enzyme were mixed together. The solution was mixed well and the absorbance at 340 nm read. The enzyme was added and read again at OD 340 after the absorbance stopped changing, generally 10 to 15 minutes after the enzyme was added.

[2] = biological target: 1-deoxy-D-xylulose-5-phosphate reductase (DOXPR) (Escherichia coli, UniProt P45568); test: DOXPR kinetic assay, spectrophotometric oxidation of NADPH at 340 nm; type: biochemical
Experimental: For DOXPR analysis, the compounds were screened using a kinetic protocol that spectrophotometrically evaluates oxidation of NADPH.
Stock solutions of each of the reagents were prepared in the following concentrations. Dilutions of the stock solutions were prepared prior to running the assay in the concentrations indicated below. DOXPR was diluted in 10 mM HEPES at a pH of 7.4.
The DOXPR reaction was monitored at 340 nm prior to and after addition of the inhibitor to detect background reaction with the inhibitor. Solutions of the inhibitors in DMSO were prepared to provide a final DMSO concentration of 5% of the total assay volume. These solutions were incubated for 6 minutes at 25° C. in a 990 μl of a solution containing 0.1 M HEPES, pH 7.4, 1 mM MnCl21.15 mM DOXP, and 8 μM NADPH. The oxidation reaction was then initiated with 10 μl of DOXP reductoisomerase (10 μg/ml). After the enzyme was added, the solution was mixed for 20 seconds, and the reaction was run for 10 minutes. After a 50 second lag, the samples were read in a Cary spectrophotometer at 340 nm. Reading of the samples was continued until 300 seconds. Cuvette #1 contained the control reaction (no inhibitor), and cuvette #2 contained the positive control reaction in which Cibacron Blue at 10.32 μM was substituted for inhibitor to yield 70 to 80% inhibition. The substrate was kept at a level at least 10 times the Km.

[3] = biological target: inosine-5′-monophosphate dehydrogenase (IMPDH); test: IMPDH kinetic assay, spectrophotometric reduction of NAD+ at 340 nm; type: biochemical; conditions: Example 13 oxidoreductase panel (FIG. 7)
Experimental: For IMPDH analysis, the compounds were screened using a kinetic protocol that spectrophotometrically evaluates reduction of NAD+.
as §1
The IMPDH reaction was monitored at 340 nm prior to and after addition of the inhibitor to detect background reaction with the inhibitor. Solutions of 100 μl of the inhibitors in DMSO were prepared to provide a final DMSO concentration of 5% of the total assay volume. These solutions were incubated for 6 minutes at 37° C. in a 992 μl of a solution containing 0.1 M Tris-HCl, pH 8.0, 0.25 M KCl, 0.3% glycerol, 30 μM NAD+, and 600 μM IMP (inosine monophosphate). The reaction was then initiated with 8 μl of IMPDH (0.75 μg/ml). After the enzyme was added, the solution was mixed for 20 seconds, and the reaction was run for 10 minutes. After a 50 second lag, the samples were read in a Cary spectrophotometer at 340 nm. Reading of the samples was continued until 300 seconds. Cuvette #1 contained the control reaction (no inhibitor), and cuvette #2 contained the positive control reaction in which Cibacron Blue was substituted for inhibitor. The substrate was kept at a level at least 10 times the Km.

1-deoxy-D-xylulose-5-phosphate reductase (DOXPR), sequence (P45568 whole entry): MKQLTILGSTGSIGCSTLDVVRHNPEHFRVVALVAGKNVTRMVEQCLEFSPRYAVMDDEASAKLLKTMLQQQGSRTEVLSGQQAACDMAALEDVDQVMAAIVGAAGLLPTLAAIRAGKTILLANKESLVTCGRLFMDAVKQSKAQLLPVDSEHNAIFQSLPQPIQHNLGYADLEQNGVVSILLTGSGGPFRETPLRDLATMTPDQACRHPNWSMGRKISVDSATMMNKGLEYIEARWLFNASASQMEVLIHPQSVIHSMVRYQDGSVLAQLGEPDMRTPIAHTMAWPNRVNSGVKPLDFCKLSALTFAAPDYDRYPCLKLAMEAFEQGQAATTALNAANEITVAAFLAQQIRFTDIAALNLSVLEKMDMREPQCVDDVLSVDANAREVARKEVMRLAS

| SMILES | IC50 [1] | IC50 ([2]; Example 13 oxidoreductase panel (FIG. 7), read-out: IC50 for DOXPR) | IC50 [3] | IC50 [2] |
| --- | --- | --- | --- | --- |
| O=C(O)c1ccc(-c2ccc(-c3nc4ccccc4[nH]3)o2)cc1 [compound 6b, 4-[5-(1H-benzoimidazol-2-yl)-furan-2-yl] benzoic acid] | 49 µM | > 60 µM | 22 µM |  |
| O=C(O)c1ccc(-c2ccc(-c3nc4cc([N+](=O)[O-])ccc4[nH]3)o2)cc1 [compound 6d, 4-[5-(5-nitro-1H-benzoimidazol-2-yl)-furan-2-yl]-benzoic acid] | > 150 µM |  | 15.8 µM | 21.4 µM |
